Assay results from patent US5886190A, “Rapid synthesis and use of 18F-fluoromisonidazole and analogs” (priority 1997, dated 1999).
“And” between values parts separate entries of the source, which are not always exact repeats. Identical values can stand only once. Like-named read-outs stand apart in the source and are kept apart here.

Columns and labels:
[1] = test system: mammary tumor cells (13762 tumor cell line); details: for Tumor/blood count density ratio / Tumor/liver count density ratio / Tumor/muscle count density ratio / Blood, percent of injected dose/gram weight / Bone, percent of injected dose/gram weight / Kidney, percent of injected dose/gram weight / Liver, percent of injected dose/gram weight / Lung, percent of injected dose/gram weight / Muscle, percent of injected dose/gram weight / Spleen, percent of injected dose/gram weight / Tumor, percent of injected dose/gram weight: 10 μCi/rat iv, N = 3
Method: (§1) The synthesis scheme for [^18 F]FETNIM is depicted in FIG. 6. Biodistribution studies of [^18 F]FETNIM were performed at 1, 2 and 4 hours in mammary tumor-bearing rats (10 μCi, iv, N=3/time interval). Autoradiograms were performed at 1 hour postinjection of [^18 F]FETNIM, and a comparison has been made with [^18 F]fluoromisonidazole (FMISO). Intratumoral oxygen tension measurements were performed using the Eppendorf computerized histographic system. Twenty to twenty-five pO2 measurements along each of 2 to 3 linear tracks were performed at 0.4 mm intervals on each tumor. PET imaging studies of [^18 F]FETNIM were performed in rabbits bearing V2 tumors (N=3, 4 mCI, iv) which were located on the right leg.
Female Fischer 344 rats (250-275 g) (Harlan, Inc., Indianapolis, Ind.) were inoculated with mammary tumor cells in the lumbar area using a 13762 tumor cell line (s.c. 10^5 cells/rat). […] Three groups of rats (N=3/group) were anesthetized with ketamine (10-15 mg/rat). The ^18 F-FETNIM reconstituted in 5% ethanol/saline was given to rats (10 μCi/rat, iv) and tissue distribution was conducted at 1h, 2h and 4h intervals. The tissues were excised, weighed and counted for radioactivity. The percent of injected dose per gram of tissue weight was determined.

[2] = test system: VX2 tumor; details: 4 mCi; 1 hour postinjection
Method: as §1
PET imaging was performed with a positron camera (Positron Corporation, Houston, Tex.). The tomograph has a field-of-view of 42 cm on transverse and 12 cm on coronal planes. The axial resolution on the reconstructed plane is 1.2 cm.
Three male New Zealand white rabbits each weighing 3 kg were inoculated at a single site in the right buttock area with a 0.5 ml suspension of minced VX2 tumor fragments (10^6 cells/rabbit). The tumors are maintained through serial animal passage and are available from the Department of Veterinary Medicine (The University of Texas M.D. Anderson Cancer Center, Houston, Tex.). […]

[3] = Hydrophilicity (from autoradiogram and chemistry); format: physicochemical; details: relative to comparator named in value
[4] = test system: hypoxic cells; test: Selectivity to hypoxic cells (PET imaging, autoradiograms, biodistribution); details: in vivo
Method: as §1
PET imaging was performed with a positron camera (Positron Corporation, Houston, Tex.). The tomograph has a field-of-view of 42 cm on transverse and 12 cm on coronal planes. The axial resolution on the reconstructed plane is 1.2 cm. […]
Female Fischer 344 rats (250-275 g) (Harlan, Inc., Indianapolis, Ind.) were inoculated with mammary tumor cells in the lumbar area using a 13762 tumor cell line (s.c. 10^5 cells/rat). […] The tissues were excised, weighed and counted for radioactivity. The percent of injected dose per gram of tissue weight was determined.

[5] = test system: mammary tumor; test: Autoradiographic studies in tumor-bearing rats; details: 1 hour postinjection
Method: as §1
Female Fischer 344 mammary tumor-bearing rats (n=3) after receiving [^18 F]FETNIM (2 mCi, iv) were sacrificed at 1 h. […] The rats were sacrificed at 1 hour postinjection. The rat body was fixed in a carboxymethyl cellulose (4%) block. The frozen body in a block was mounted to a cryostat (LKB 2250 cryo-microtome, Ijamsville, Md.) and 40 μm coronal sections were made. The section was freeze dried, then mounted on a x-ray film (X-Omat AR, Kodak, Rochester, N.Y.) for 24 hours.

[6] = test system: patients; details: cited from earlier work; for Dose-limiting toxicity: clinical trials
[7] = test system: cancer of the pharynx; details: cited from earlier work; for Radiosensitizer potency: human, in vivo; for Clinical benefit on addition: patients with high hemoglobin levels and cancer of the pharynx
[8] = in mice; cited from earlier work
[9] = 1 hour, listed as [^18 F] Fluoroerythronitroimidazole
[10] = 2 hour, listed as [^18 F] Fluoroerythronitroimidazole
[11] = 4 hour, listed as [^18 F] Fluoroerythronitroimidazole

For `O=[N+]([O-])c1nccn1C[C@H](O)[C@H](O)CF` [[^18 F]FETNIM, [^18 F]fluoroerythro-2-nitroimidazole], the “Tumor/muscle, tumor/blood and tumor/liver count density ratios, change with time” value ([1]; 1, 2 and 4 h) was “showed increases with time”, the “Tumor/blood count density ratio” value ([1]; 1 hour) was 2.29±0.599 and the “Tumor/liver count density ratio” value ([1]; 1 hour) was 1.7600 ± 0.4415. For the same compound, the “Tumor/muscle count density ratio” value ([1]; 1 hour) was 0.66±0.267, the “Tumor/blood count density ratio” value [1, 9] was 2.2900 ± 0.5994 and the “Tumor/muscle count density ratio” value [1, 9] was 0.6602 ± 0.2666. The “Tumor/blood count density ratio” value ([1]; 2 hour) was 2.41±0.567, the “Tumor/liver count density ratio” value ([1]; 2 hour) was 1.7700 ± 0.2561 and the “Tumor/muscle count density ratio” value ([1]; 2 hour) was 2.11±0.347. For the same compound, the “Tumor/blood count density ratio” value [1, 10] was 2.4100 ± 0.5672, the “Tumor/muscle count density ratio” value [1, 10] was 2.1100 ± 0.3468 and the “Tumor/blood count density ratio” value ([1]; 4 hour) was 8.0±2.42 and 8.02±2.420. The “Tumor/liver count density ratio” value ([1]; 4 hour) was 4.3300 ± 1.31, the “Tumor/muscle count density ratio” value ([1]; 4 hour) was 5.92±2.240 and the “Tumor/blood count density ratio” value [1, 11] was 8.0200 ± 2.42. The “Tumor/muscle count density ratio” value [1, 11] was 5.9200 ± 2.24, the “Blood, percent of injected dose/gram weight” value ([1]; 1 hour) was 0.3493 ± 0.02173% of Injected Dose/Gram Weight and the “Blood, percent of injected dose/gram weight” value ([1]; 2 hour) was 0.1950 ± 0.02828% of Injected Dose/Gram Weight. For the same compound, the “Blood, percent of injected dose/gram weight” value ([1]; 4 hour) was 0.0993 ± 0.01266% of Injected Dose/Gram Weight, the “Bone, percent of injected dose/gram weight” value ([1]; 1 hour) was 0.2570 ± 0.14% of Injected Dose/Gram Weight and the “Bone, percent of injected dose/gram weight” value ([1]; 2 hour) was 0.0810 ± 0.00424% of Injected Dose/Gram Weight. The “Bone, percent of injected dose/gram weight” value ([1]; 4 hour) was 0.0753 ± 0.0157% of Injected Dose/Gram Weight, the “Kidney, percent of injected dose/gram weight” value ([1]; 1 hour) was 0.8860 ± 0.00424% of Injected Dose/Gram Weight and the “Kidney, percent of injected dose/gram weight” value ([1]; 2 hour) was 0.5145 ± 0.02334% of Injected Dose/Gram Weight. The “Kidney, percent of injected dose/gram weight” value ([1]; 4 hour) was 0.4663 ± 0.06866% of Injected Dose/Gram Weight, the “Liver, percent of injected dose/gram weight” value ([1]; 1 hour) was 0.4530 ± 0.01493% of Injected Dose/Gram Weight and the “Liver, percent of injected dose/gram weight” value ([1]; 2 hour) was 0.3123 ± 0.08225% of Injected Dose/Gram Weight. The “Liver, percent of injected dose/gram weight” value ([1]; 4 hour) was 0.1843 ± 0.02458% of Injected Dose/Gram Weight, the “Lung, percent of injected dose/gram weight” value ([1]; 1 hour) was 0.3577 ± 0.00723% of Injected Dose/Gram Weight and the “Lung, percent of injected dose/gram weight” value ([1]; 2 hour) was 0.2107 ± 0.05713% of Injected Dose/Gram Weight. For the same compound, the “Lung, percent of injected dose/gram weight” value ([1]; 4 hour) was 0.1027 ± 0.02122% of Injected Dose/Gram Weight, the “Muscle, percent of injected dose/gram weight” value ([1]; 1 hour) was 1.2600 ± 0.08627% of Injected Dose/Gram Weight and the “Muscle, percent of injected dose/gram weight” value ([1]; 2 hour) was 0.2670 ± 0.09036% of Injected Dose/Gram Weight. For the same compound, the “Muscle, percent of injected dose/gram weight” value ([1]; 4 hour) was 0.1377 ± 0.01893% of Injected Dose/Gram Weight, the “Spleen, percent of injected dose/gram weight” value ([1]; 1 hour) was 0.3183 ± 0.02011% of Injected Dose/Gram Weight and the “Spleen, percent of injected dose/gram weight” value ([1]; 2 hour) was 0.2013 ± 0.05918% of Injected Dose/Gram Weight. For the same compound, the “Spleen, percent of injected dose/gram weight” value ([1]; 4 hour) was 0.0953 ± 0.01401% of Injected Dose/Gram Weight, the “Tumor, percent of injected dose/gram weight” value ([1]; 1 hour) was 0.7957 ± 0.2036% of Injected Dose/Gram Weight and the “Tumor, percent of injected dose/gram weight” value ([1]; 2 hour) was 0.5516 ± 0.1582% of Injected Dose/Gram Weight. The “Tumor, percent of injected dose/gram weight” value ([1]; 4 hour) was 0.8113 ± 0.3377% of Injected Dose/Gram Weight, the “SUV value of the tumor” value [2] was “greater than 10” and the Hydrophilicity [3] was “more hydrophilic than [^18 F]FMISO”. The Hydrophilicity ([3]; listed as [^18 F]fluoroerythronitroimidazole) was “more hydrophilic than misonidazole”, the “Selectivity to hypoxic cells” value [4] was “selective to hypoxic cells” and the “Tumor visualization by autoradiography” value ([5]; 2 mCi iv) was “the tumor could be visualized 1 hour postinjection”. The “Uptake in the center region of the tumor” value ([5]; 2 mCi iv) was “lack of uptake”, the “Uptake in intestines and colon” value [5] was “high uptake” and the “Uptake in medullary of the kidney area” value [5] was “higher uptake”. For the same compound, the “Differentiation of hypoxic versus necrotic regions in the tumor” value ([5]; autoradiogram) was “could differentiate hypoxic versus necrotic regions in the tumor”.

In the case of `O=C(Cn1ccnc1[N+](=O)[O-])NCCO` [etanidazole], the Dose-limiting toxicity [6] is given as “peripheral neuropathy that progressed to central nervous system toxicity if drug administration was not stopped”, the Radiosensitizer potency [7] is given as “potent radiosensitizers” and the “Clinical benefit on addition” value [7] is given as “great benefit”.

For `COCC(O)Cn1ccnc1[N+](=O)[O-]` (centres unmarked) [misonidazole], the Dose-limiting toxicity [6] is listed as “peripheral neuropathy that progressed to central nervous system toxicity if drug administration was not stopped”, the “Most common side effect” value ([6]; human, in vivo) is listed as “peripheral sensory neuropathy of the hands and feet” and the “Toxicity after large single doses” value ([6]; large single doses) is listed as “convulsions”. The “Toxicity following small multiple doses” value ([6]; small multiple doses) was “encephalopathies”, the “Dose which affects the neurotransmitter system” value [8] was 0.76 mg/g and the Radiosensitizer potency [7] was “potent radiosensitizers”. The “Clinical benefit on addition” value [7] was “great benefit”.
